# Like-named read-outs stand apart in the source and are kept apart here.
# Columns and labels:
# Assay type in all cases: biochemical
# human liver cathepsin L = target: T1, human liver cathepsin L (Homo sapiens, UniProt P07711); assay: Cathepsin L assay, IC50 determination
# T1 construct: 8.7 ng/mL human liver cathepsin L (Calbiochem 219402); purchased Calbiochem 219402; host or cells: human liver
# Method: Assay buffer consisted of 20 mM sodium acetate, 1 mM ethylenediaminetetraacetic acid (EDTA) and 5 mM cysteine, pH 5.5. Cathepsin L was incubated in assay buffer for 30 minutes prior to dispensing into wells to allow for efficient reduction of the active site cysteine required for full enzymatic activity.
# Upon activation, cathepsin L (300 pM, 8.7 ng/mL) was incubated with 1 microM Z-Phe-Arg-AMC substrate (Sigma C9521) and test compound in […] of assay buffer for 1 hour at room temperature.
# All reactions were performed in 20 mM sodium acetate buffer containing 5 mM cysteine and 1 mM EDTA, pH 5.5. Reaction progress was monitored using the Envision microplate reader. IC50 values were measured in triplicate.
# Human liver cathepsin B = target: T2, Human liver cathepsin B (Homo sapiens, UniProt P07858); assay: Cathepsin B assay, IC50 determination
# T2 construct: Human liver cathepsin B (Calbiochem 219362, 65 ng/mL); purchased Calbiochem 219362; host or cells: human liver
# Method: (§1) Human spleen cathepsin S (Calbiochem 219344, 40 ng/mL) was assayed using 15 microM Z-Phe-Arg-AMC substrate. Human liver cathepsin B (Calbiochem 219362, 65 ng/mL) was assayed using 15 microM Z-Arg-Arg-AMC substrate (Bachem I-1135). All reactions were performed in 20 mM sodium acetate buffer containing 1 mM EDTA and 5 mM cysteine, pH 5.5.
# (§2) Compounds were serially diluted in DMSO and transferred into a 96-well Corning 3686 assay microplate to give a 16-point two-fold serial dilution dose response ranging from 25 microM to 760 pM. Human liver cathepsin L (Calbiochem 219402) was activated by incubating with assay buffer for 30 min. Upon activation, cathepsin L (300 pM, 8.7 ng/mL) was incubated with 1 microM Z-Phe-Arg-AMC substrate (Sigma C9521) and test compound in […] of assay buffer for 1 hour at room temperature. Fluorescence of AMC released by enzyme-catalyzed hydrolysis of Z-Phe-Arg-AMC was read on a PerkinElmer Envision microplate reader (excitation 355 nm, emission 460 nm). Data were scaled using internal controls and fitted to a four-parameter logistic model (IDBS XLfit equation 205) to obtain IC50 values in triplicate.
# (§3) Compound No. 1 was assayed for inhibition against papain and cathepsins B, G, K, S, and V. Papain from Carica papaya (Calbiochem 5125, 11 ng/mL), human cathepsin K (Calbiochem 342001, 35 ng/mL), human spleen cathepsin S (Calbiochem 219344, 40 ng/mL), and human cathepsin V (Calbiochem 219467, 39 ng/ml) were assayed using Z-Phe-Arg-AMC substrate at 20 μM, 20 μM, 15 μM, and 1 μM, respectively. Human liver cathepsin B (Calbiochem 219362, 65 ng/mL) was assayed using 15 μM Z-Arg-Arg-AMC substrate (Bachem I-1135). Human neutrophil cathepsin G (Calbiochem 219373, 4.2 μg/mL) was assayed using 15 μM Suc-Ala-Ala-Pro-Phe-AMC substrate (Sigma S9761). All reactions were performed in 20 mM sodium acetate buffer containing 5 mM cysteine and 1 mM EDTA, pH 5.5. Reaction progress was monitored using the Envision microplate reader. IC50 values were measured in triplicate.
# Human spleen cathepsin S = target: T3, Human spleen cathepsin S (Homo sapiens, UniProt P25774); assay: Cathepsin S assay, IC50 determination
# T3 construct: Human spleen cathepsin S (Calbiochem 219344, 40 ng/mL); purchased Calbiochem 219344; host or cells: human spleen
# T3 sequence (P25774 115-331): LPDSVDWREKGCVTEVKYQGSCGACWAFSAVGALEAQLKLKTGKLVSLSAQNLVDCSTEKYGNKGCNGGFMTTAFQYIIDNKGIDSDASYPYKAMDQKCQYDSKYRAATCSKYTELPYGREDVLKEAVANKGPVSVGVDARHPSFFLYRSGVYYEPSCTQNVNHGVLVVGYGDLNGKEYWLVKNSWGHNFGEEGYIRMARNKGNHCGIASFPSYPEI
# Method: as §1, §2, §3
# T1 sequence (P07711 114-288 limits assumed): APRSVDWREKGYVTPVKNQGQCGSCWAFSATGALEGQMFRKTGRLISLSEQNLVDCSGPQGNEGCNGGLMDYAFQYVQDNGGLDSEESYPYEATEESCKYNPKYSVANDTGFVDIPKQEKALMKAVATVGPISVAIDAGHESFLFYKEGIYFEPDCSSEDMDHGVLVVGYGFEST
# T1 sequence (P07711 292-333 limits assumed): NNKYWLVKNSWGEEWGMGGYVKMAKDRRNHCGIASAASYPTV
SMILES,"IC50 (human liver cathepsin L; Table 1, read-out: IC50 Cat L) [µM]","IC50 (Human liver cathepsin B; Table 1, read-out: IC50 Cat B) [µM]","IC50 (Human spleen cathepsin S; Table 1, read-out: IC50 Cat S) [µM]","IC50 (human liver cathepsin L; Tables 2-11, read-out: Cat L) [µM]","IC50 (Human liver cathepsin B; Tables 2-11, read-out: Cat B) [µM]","IC50 (Human spleen cathepsin S; Tables 2-11, read-out: Cat S) [µM]"
CCc1ccccc1NC(=O)CSC(=O)NNC(=O)[C@@H](C)CO [Compound No. 69],> 25,> 25,> 25,,,
C[C@@H](CO)C(=O)NNC(=O)SCC(=O)N1CCCc2ccccc21 [Compound No. 70],> 25,> 25,> 25,,,
CCc1ccccc1NC(=O)CSC(=O)NNC(=O)[C@@H](C)CO[Si](C)(C)C(C)(C)C [Compound No. 71],> 25,> 25,> 25,,,
CCc1ccccc1NC(=O)CSC(=O)NNC(=O)[C@@H](C)COCc1ccc(OC)cc1 [Compound No. 72],> 25,> 25,> 25,,,
CCc1ccccc1NC(=O)CSC(=O)NNC(=O)CCc1c[nH]c2ccccc12 [Compound No. 73],> 25,> 25,> 25,,,
CCc1ccccc1NC(=O)CSC(=O)NNC(=O)C[C@H](C)NC(=O)OC(C)(C)C [Compound No. 74],> 25,> 25,> 25,,,
C[C@@H](CC(=O)NNC(=O)SCC(=O)N1CCCc2ccccc21)NC(=O)OC(C)(C)C [Compound No. 75],> 25,> 25,> 25,,,
CCc1ccccc1NC(=O)CSC(=O)NNC(=O)C[C@H](CCSC)NC(=O)OC(C)(C)C [Compound No. 76],5.52,> 25,2.41,,,
CSCC[C@@H](CC(=O)NNC(=O)SCC(=O)N1CCCc2ccccc21)NC(=O)OC(C)(C)C [Compound No. 77],6.95,> 25,3.01,,,
CCc1ccccc1NC(=O)CSC(=O)NNC(=O)C[C@@H](NC(=O)OC(C)(C)C)C(C)C [Compound No. 78],7.52,11.5,> 25,,,
CC(C)[C@@H](CC(=O)NNC(=O)SCC(=O)N1CCCc2ccccc21)NC(=O)OC(C)(C)C [Compound No. 79],> 25,15.8,> 25,,,
CCc1ccccc1NC(=O)CSC(=O)NNC(=O)C[C@@H]1CCCN1C(=O)OC(C)(C)C [Compound No. 80],> 25,> 25,> 25,,,
CC(C)(C)OC(=O)N1CCC[C@H]1CC(=O)NNC(=O)SCC(=O)N1CCCc2ccccc21 [Compound No. 81],> 25,> 25,> 25,,,
CCc1ccccc1NC(=O)CSC(=O)NNC(=O)C[C@H](COCc1ccccc1)NC(=O)OC(C)(C)C [Compound No. 82],> 25,> 25,4.47,,,
CC(C)(C)OC(=O)N[C@@H](COCc1ccccc1)CC(=O)NNC(=O)SCC(=O)N1CCCc2ccccc21 [Compound No. 83],2.12,> 25,5.95,,,
CCc1ccccc1NC(=O)CSC(=O)NNC(=O)C[C@@H](COCc1ccccc1)NC(=O)OC(C)(C)C [Compound No. 84],> 25,> 25,15.2,,,
CC(C)(C)OC(=O)N[C@H](COCc1ccccc1)CC(=O)NNC(=O)SCC(=O)N1CCCc2ccccc21 [Compound No. 85],> 25,> 25,> 25,,,
CCc1ccccc1NC(=O)CSC(=O)NNC(=O)C[C@@H](Cc1c[nH]c2ccccc12)NC(=O)OC(C)(C)C [Compound No. 86],> 25,> 25,> 25,,,
CCc1ccccc1NC(=O)COC(=O)NNC(=O)[C@H](Cc1c[nH]c2ccccc12)NC(=O)OC(C)(C)C [Compound No. 93],,,,0.011,≥ 25,0.062
CC(C)(C)OC(=O)N[C@@H](Cc1c[nH]c2ccccc12)C(=O)NNC(=O)OCc1ccccc1 [Compound No. 94],,,,0.806,≥ 25,4.1

# — patent US20110207726A1, “Inhibitors of Human Cathepsin L, Cathepsin B, and Cathepsin S” (The Trustees of the University of Pennsylvania, priority 2008, published 2011)
